Earlier results in the PKSmart pharmacokinetics tables (Seal et al. 2025).

Assays:
[1] = Lombardo et al. 2013, J Clin Pharmacol 53:178, doi 10.1177/0091270012440282; settings: for Vd / clearance: in vivo, iv; for fraction unbound: plasma
[2] = Lombardo, Berellini, Obach 2018, Drug Metab Dispos 46:1466, doi 10.1124/dmd.118.082966; settings: human; for MRT / Vd / clearance / half-life: in vivo, iv; for fraction unbound: plasma

SMILES | Vd ([1]; dog) [L/kg] | clearance ([1]; dog) [mL/min/kg] | Vd ([1]; rat) [L/kg] | clearance ([1]; rat) [mL/min/kg] | MRT [2] [h] | Vd [2] [L/kg] | clearance [2] [mL/min/kg] | half-life [2] [h] | fraction unbound [2] | fraction unbound ([1]; dog) | Vd ([1]; monkey) [L/kg] | clearance ([1]; monkey) [mL/min/kg] | fraction unbound ([1]; monkey) | fraction unbound ([1]; rat)
CCOC(=O)C1(c2ccccc2)CCN(C)CC1 | 2.4 | 43 | 9.2 | 245 | 6.4 | 2.3 | 4.9 | 7.9 | 0.42 |  |  |  |  | 
CN(C)CCc1c[nH]c2ccc(CS(=O)(=O)N3CCCC3)cc12 | 3.98 | 28.5 | 2.7 | 55.8 | 4.2 | 2.2 | 8.9 | 3.4 | 0.6 | 0.73 | 2.61 | 40 | 0.699 | 0.72
O=c1n(CCCN2CCN(c3cccc(Cl)c3)CC2)nc2ccccn12 |  |  | 1.76 | 51.8 | 6.2 | 0.52 | 1.4 | 7.3 | 0.08 |  |  |  |  | 0.12
CN(C)CCCN1c2ccccc2CCc2ccc(Cl)cc21 | 3.7 | 23.3 |  |  | 26 | 13 | 8.2 |  |  | 0.01 |  |  |  | 
CCCC(=O)OCOC(=O)C1=C(C)NC(C)=C(C(=O)OC)C1c1cccc(Cl)c1Cl (centres undefined) | 0.21 |  | 0.44 |  | 0.07 | 0.58 |  | 0.3 |  |  |  |  |  | 
CCCCN1CCCCC1C(=O)Nc1c(C)cccc1C (centres undefined) | 0.7 | 32 | 2.4 | 76 | 2.12 | 0.665 | 6.5 | 1.95 | 0.043 | 0.11 | 0.66 | 10 | 0.051 | 0.23
Cn1c(=O)c2c(ncn2CC(O)CO)n(C)c1=O (centres undefined) |  |  | 1.04 | 24.7 | 1.5 | 0.42 | 4.8 | 1.7 |  |  |  |  |  | 
CC(=O)Oc1ccccc1C(=O)O |  |  | 0.4 | 87 | 0.3 | 0.22 | 12 | 0.26 | 0.68 |  |  |  |  | 
C=CC1=C(C(=O)O)N2C(=O)C(=NC(=O)C(NOCC(=O)O)c3csc(N)n3)[C@H]2SC1 (some centres undefined) | 0.24 | 0.4 | 0.4 | 6 |  | 0.24 | 1 | 3.2 |  | 0.07 |  |  |  | 0.4
Cc1nc2n(c(=O)c1CCN1CCC(c3noc4cc(F)ccc34)CC1)CCCC2 |  |  | 3.6 | 71.7 |  |  |  | 3.2 |  | 0.083 |  |  | 0.084 | 0.118
CCN(CCO)CCCC(C)Nc1ccnc2cc(Cl)ccc12 (centres undefined) |  |  | 14.6 | 28.2 | 1300 | 700 | 11 | 850 | 0.57 |  |  |  |  | 0.62
CN1CCc2cccc3c2[C@H]1Cc1ccc(O)c(O)c1-3 |  |  |  |  | 0.67 | 1.6 | 40 |  | 0.05 |  |  |  |  | 0.1
Oc1ccc2c3c1O[C@H]1[C@@H](O)CC[C@@]4(O)[C@@H](C2)N(CC2CCC2)CC[C@]314 |  |  | 11 | 111 | 3.5 | 4.6 | 22 | 3.7 |  |  |  |  |  | 
Nc1ccc(S(=O)(=O)Nc2ncccn2)cc1 |  |  | 0.34 | 1.1 | 8.8 | 0.29 | 0.55 | 7 |  | 0.78 | 0.5 | 0.64 | 0.463 | 0.86
CC(C)(C)NC(=O)C1CC[C@H]2[C@@H]3CC[C@H]4NC(=O)C=C[C@]4(C)[C@H]3CC[C@]12C (some centres undefined) |  |  |  |  | 7.6 | 1.1 |  | 6 |  | 0.18 |  |  |  | 
CN/C(=C\[N+](=O)[O-])NCCSCc1ccc(CN(C)C)o1 | 1.65 |  | 2.87 |  | 2.1 | 1.2 |  | 2.1 |  |  |  |  |  | 1
Nc1ncn([C@H]2C[C@H](O)[C@@H](CO)O2)c(=O)n1 | 0.85 | 8.6 | 1.8 | 7.9 | 0.59 | 4.6 | 130 | 0.58 |  |  |  |  |  | 
CO[C@@]1(NC(=O)C(C(=O)O)c2ccc(O)cc2)C(=O)N2C(C(=O)O)=C(CSc3nnnn3C)CO[C@@H]21 (some centres undefined) | 0.2 | 2.2 | 0.25 | 9.1 | 3.9 | 0.17 | 0.72 | 2.9 | 0.39 | 0.66 | 0.19 | 2.3 | 1 | 1
CCCCCN(CCCOC)C(=O)C(CCC(=O)O)NC(=O)c1ccc(Cl)c(Cl)c1 (centres undefined) | 0.34 | 30.7 | 0.98 | 6.01 | 2.4 | 0.21 | 2.35 | 3.2 |  | 0.021 |  |  |  | 0.0093
CON=C(C(=O)NC1C(=O)N2C(C(=O)O)=C(COC(C)=O)CS[C@H]12)c1csc(N)n1 (some centres undefined) | 0.5 | 8.13 |  |  | 1.2 | 0.19 | 2.7 | 1.2 | 0.6 |  |  |  |  | 0.59
CO[C@@]1(NC(=O)Cc2cccs2)C(=O)N2C(C(=O)O)=C(COC(N)=O)CS[C@@H]21 | 0.6 | 11 |  |  | 0.79 | 0.17 | 3.6 | 0.81 | 0.73 |  |  |  |  | 
CNCCCN1c2ccccc2CCc2ccccc21 |  |  | 19.8 |  | 23 | 15 |  | 22 |  |  |  |  |  | 

SMILES | Vd ([1]; dog) [L/kg] | clearance ([1]; dog) [mL/min/kg] | Vd ([1]; rat) [L/kg] | clearance ([1]; rat) [mL/min/kg] | MRT [2] [h] | Vd [2] [L/kg] | clearance [2] [mL/min/kg] | half-life [2] [h] | fraction unbound [2] | fraction unbound ([1]; dog) | Vd ([1]; monkey) [L/kg] | clearance ([1]; monkey) [mL/min/kg] | fraction unbound ([1]; monkey) | fraction unbound ([1]; rat)
CC(=O)Nc1nnc(S(N)(=O)=O)s1 |  |  | 0.21 | 68 | 9.5 | 0.37 | 0.65 |  | 0.04 |  |  |  |  | 0.2
COc1nc(N)nc2c1ncn2[C@@H]1O[C@H](CO)[C@@H](O)[C@@H]1O |  |  |  |  | 1 | 4.9 | 81 | 0.5 |  |  | 1.3 | 42 |  | 
CN(c1nc2ccccc2s1)C1CCN(C[C@H](O)COc2ccc(F)c(F)c2)CC1 |  |  |  |  |  |  |  |  | 0.003 |  |  |  |  | 0.008
CON=C(C(=O)NC1C(=O)N2C(C(=O)O)=CCS[C@H]12)c1csc(N)n1 (some centres undefined) | 0.27 | 3.25 | 0.54 | 19.3 | 1.6 | 0.2 | 2.1 | 1.5 | 0.72 | 0.83 | 0.29 | 5.93 | 0.662 | 0.7
O=P1(N(CCCl)CCCl)NCCCO1 (centres undefined) | 0.7 | 20 | 0.67 | 11.1 | 11 | 0.73 | 1.1 | 8 |  |  |  |  |  | 
O=C(CCCN1CCC(O)(c2ccc(Cl)cc2)CC1)c1ccc(F)cc1 | 37 |  | 10.4 |  | 36 | 17 |  | 35 |  |  | 3.7 |  |  | 0.24
COCc1c(-c2ccc(F)cc2)c(=CC[C@@H](O)C[C@@H](O)CC(=O)O)c(C(C)C)nc1=C(C)C |  |  | 3 | 27 | 1.8 | 0.33 | 2.9 | 1.8 |  |  |  |  |  | 
CON=C(C(=O)NC1C(=O)N2C(C(=O)[O-])=C(C[n+]3cccc4c3CCC4)CS[C@H]12)c1csc(N)n1 (some centres undefined) | 0.22 | 3.2 | 0.3 | 9.5 | 2.1 | 0.24 | 1.9 | 1.7 | 0.9 | 0.542 | 0.27 | 2.4 | 0.446 | 
CCCC(C)C1(CC)C(=O)NC(=O)NC1=O (centres undefined) | 1.06 | 1.3 | 1.64 | 8.4 | 32 | 0.91 | 0.47 | 22 | 0.39 |  |  |  |  | 0.5
NCC1(CC(=O)O)CCCCC1 | 0.16 | 2.3 | 1.1 | 9.1 | 7 | 0.71 | 1.7 | 5.3 |  |  | 0.65 | 2.3 | 0.02 | 0.02
[H]/N=C(\N)c1ccc(CNC(=O)C2CCN2C(=O)C(NCC(=O)O)C2CCCCC2)cc1 (centres undefined) | 0.36 | 7 | 0.39 | 16.9 |  |  |  |  |  | 0.89 |  |  |  | 0.9
CC(=O)N[C@H]1[C@H]([C@H](O)[C@H](O)CO)OC(C(=O)O)=C[C@@H]1N=C(N)N |  |  | 0.8 | 31.7 |  |  |  |  |  |  |  |  |  | 
CC(NC(=O)N(CCCl)N=O)C(N)=O (centres undefined) |  | 17.6 |  |  |  |  |  |  |  |  |  |  |  | 
CCCc1nn(C)c2c(=O)nc(-c3cc(S(=O)(=O)N4CCN(C)CC4)ccc3OCC)[nH]c12 | 5.2 | 12 | 1.1 | 48 |  |  |  |  |  | 0.14 |  |  |  | 
O=c1nc[nH]c2c1ncn2[C@H]1CC[C@@H](CO)O1 | 0.96 | 25.3 | 1.3 | 150 |  |  |  |  |  |  | 1.3 | 27.2 |  | 
Cn1c(=O)c2[nH]cnc2n(C)c1=O | 0.68 | 1.8 |  | 2.25 |  |  |  |  |  |  | 0.69 | 3.8 |  | 
CCC[C@@H]1CC(C(=O)N[C@@H]([C@H]2O[C@H](SC)[C@H](O)[C@@H](O)[C@H]2O)[C@H](C)Cl)N(C)C1 (some centres undefined) |  |  |  |  |  |  |  |  |  | 0.035 |  |  |  | 0.325
COC1CC(OC2C(C)C(=O)OC(C)C(C)C(O)C(C)C(=O)C3(CO3)CC(C)C(OC3OC(C)CC(N(C)C)C3O)C2C)OC(C)C1O (centres undefined) | 1.6 | 12 | 6.8 | 51 |  |  |  |  |  | 0.13 |  |  |  | 0.46
CCC1=NC(=O)C2CSSCC/C=C\[C@H](CC(=O)NC(C(C)C)C(=O)N2)OC(=O)C(C(C)C)NC1=O (some centres undefined) |  |  | 63.8 | 625 |  |  |  |  |  |  | 4.95 | 27.9 |  | 
COc1ccc(-c2nc3ccc(C4=NNC(=O)CC4C)cc3[nH]2)cc1 (centres undefined) |  |  | 3.5 |  |  |  |  |  |  |  |  |  |  | 
O=C(c1ccccc1)c1ccc2n1CCC2C(=O)O (centres undefined) | 0.33 | 1.25 |  | 3.6 |  |  |  |  |  |  |  |  |  | 
C#CCN(C)[C@H](C)Cc1ccccc1 | 9.46 | 160 |  |  |  |  |  |  |  |  |  |  |  | 0.31
